≈ marks a conversion by molar mass, not a printed value. Read-outs that look alike come from different tables or passages of the source.
How the values were obtained:
[1] = tested on: Lactobacillus reuteri CH53 strain; assay: IC50 of Lactobacillus reuteri CH53 strain for metabolites (Example 1); type: cell-based
Experimental: The half-maximal inhibitory concentrations (IC50) of the Lactobacillus reuteri CH53 strain (KCTC13149BP) for major metabolites were measured. […] Thereafter, 1% (v/v) of the strain culture with OD600 nm=8.0 was inoculated into each broth and statically cultured at 37° C. for 24 hours, and the concentration at which the absorbance (OD600 nm) was half of the control was measured.

L. reuteri JH53 = assay: IC50 for organic acids, mutant strain (Example 3); type: cell-based, Lactobacillus reuteri; conditions: Limosilactobacillus reuteri, JH53, 24 h, pH 5.5, read-out: IC50 (g/L) L. reuteri JH53
Experimental: (§1) In order to confirm that the Lactobacillus reuteri JH53 strain of the present invention has enhanced organic acid resistance, the half-maximal inhibitory concentrations (IC50) for organic acids were measured. […] Thereafter, 1% (v/v) of each strain culture with OD600 nm=8.0 was inoculated into each broth and statically cultured at 37° C. for 24 hours, and the concentration at which the absorbance (OD600 nm) was half of the control was measured.

L. reuteri CH53 = assay: IC50 for organic acids, parent strain (Example 3); type: cell-based, Lactobacillus reuteri; conditions: Limosilactobacillus reuteri
Experimental: as §1

[2] = tested on: Lactobacillus reuteri CH53 strain; assay: Fed-batch culture of CH53 in medium supplemented with organic acid; type: cell-based; conditions: 10 g/L organic acid added, pH 5.5, fed-batch, 37° C., 100 rpm
Experimental: Cell growth and 1,3-propanediol production were measured while the Lactobacillus reuteri CH53 strain was fed-batch cultured in a medium supplemented with an organic acid. 3 L of MRS broth containing 20 g/L of glycerol, 10 g/L of proteose peptone NO. […] During culture, glucose and glycerol were continuously fed so that they could be maintained at residual concentrations of 5 to 10 g/L. Thereafter, 1% (v/v) of the strain culture with OD600 nm=8.0 was inoculated into each broth, and the absorbance (OD600 nm) was measured while fed-batch culture was carried out under conditions of 37° C. and 100 rpm. 1 mL of each culture was centrifuged at 13,000 rpm for 5 minutes, and then the supernatant was filtered through a 0.22-μm filter and the concentration of 1,3-propanediol was measured using high-performance liquid chromatography. 1,3-Propanediol production was analyzed by high-performance liquid chromatography equipped with an ion exchange column ([…], Aminex HPX-87H, Bio-Rad) and a differential refraction detector (RID) using 0.25 mM H2SO4 as a mobile phase at a flow rate of 0.6 ml/min.

[3] = tested on: Lactobacillus reuteri CH53 strain; conditions: lactic acid and acetic acid mixed in MRS plate medium, anaerobic, 37° C., 24 hours
[4] = Limosilactobacillus reuteri, CH53STRAIN, CH53 strain, MRS broth pH 5.5, static culture 37° C. 24 hours, concentration at which OD600 nm was half of control, read-out: IC50

SMILES | IC50 ([1]; CH53 strain, MRS broth pH 5.5, static culture 37° C. 24 hours, concentration at which OD600 nm was half of control) [mg/mL] | IC50 (L. reuteri JH53) [g/L] | IC50 (L. reuteri CH53; CH53, 24 h, pH 5.5, read-out: IC50 (g/L) L. reuteri CH53) [g/L] | Effect on 1,3-propanediol production of CH53 strain [2] | Effect on cell growth of CH53 strain [2] | Concentration at which CH53 strain could not grow [3] [g/L] | IC50 ([1]; Limosilactobacillus reuteri, CH53STRAIN, 24 h, pH 5.5) [mg/mL] | IC50 [1, 4] [mg/mL] | IC50 (L. reuteri CH53; CH53, MRS broth pH 5.5, static culture 37° C. 24 hours, OD600 nm half of control, read-out: IC50 (g/L) L. reuteri CH53) [g/L]
OCCCO [1,3-propanediol] | 79.8 | – | – | – | – | – | – | – | –
CC(=O)O [Acetic acid] | – | 25.6 (≈ 426 mM) | 20.6 (≈ 343 mM) | reduced 1,3-propanediol production | did not affect cell growth | ≥ 17.5 | 17.4 | – | –
CCO [Ethanol] | – | – | – | – | – | – | – | 29.5 | –
CC(O)C(=O)O (centres unmarked) [Lactic acid] | – | 36.7 (≈ 407 mM) | – | reduced 1,3-propanediol production | did not affect cell growth | ≥ 35.0 | – | 27.9 | 31.9 (≈ 354 mM)

Reference: US20250163365A1, “LACTOBACILLUS REUTERI JH53 STRAIN HAVING EXCELLENT ORGANIC ACID RESISTANCE AND CONVERSION OF 1,3-PROPANDIOL FROM GLYCEROL, AND USE THEREOF” (ACTIVON CO., LTD., priority 2021, published 2025)
